Measurements: patent US9113629B2, “4-amino-6-(4-substituted-phenyl)-picolinates and 6-amino-2-(4-substituted-phenyl)-pyrimidine-4-carboxylates and their use as herbicides” (DOW AGROSCIENCES LLC, priority 2013, dated 2015)
Where two headings read alike, the source gives them in different places.

Columns and labels:
Format in all cases: in vivo
[1] = system: AVEFA: wild oats (Avena fatua); assay: Pre-emergent Test I herbicidal activity; conditions: pre-emergence, 336 h, read-out: Visual Growth Reduction (%) 14 Days After Application, AVEFA
Protocol: (§1) Pre-emergent Test I Seeds of test species were planted into round plastic pots (5-inch diameter) containing sandy loam soil. After planting, all pots were sub-irrigated 16 h prior to compound application. Compounds were dissolved in a 97:3 v/v (volume/volume) mixture of acetone and dimethyl sulfoxide (DMSO) and diluted to the appropriate concentration in a final application solution containing water, acetone, isopropanol, DMSO and Agri-dex (crop oil concentrate) in a 59:23:15:1.0:1.5 v/v ratio and 0.02% w/v (weight/volume) of Triton X-155 to obtain the spray solution containing the highest application rate. Additional application rates were obtained by serial dilution of the high rate solution with the above application solution. Formulated compound (2.7 mL) was applied pipetted evenly over the soil surface followed by incorporation with water (15 mL). Following treatment, pots were returned to the greenhouse for the duration of the experiment. The greenhouse was programmed for an approximate 15 h photoperiod which was maintained at about 23-29° C. during the day and 22-28° C. during the night. Nutrients and water were added on a regular basis through surface irrigation and supplemental lighting was provided with overhead metal halide 1000-Watt lamps as necessary. Herbicidal effect ratings were obtained 14 days after treatment. All evaluations were made relative to appropriate controls on a scale of 0 to 100 where 0 represents no herbicidal effect and 100 represents plant death or lack of emergence from the soil.

[2] = system: ECHCG: barnyardgrass (Echinochloa crus-galli); assay: Pre-emergent Test I herbicidal activity; conditions: pre-emergence, 336 h, read-out: Visual Growth Reduction (%) 14 Days After Application, ECHCG; for pest or weed control at 4000 g/ha: 4 kg ai/ha; for pest or weed control at 4040 g/ha: 4.04 kg ai/ha
Protocol: as §1

[3] = system: HELAN: sunflower (Helianthus annuus); assay: Pre-emergent Test I herbicidal activity; conditions: pre-emergence, 336 h, read-out: Visual Growth Reduction (%) 14 Days After Application, HELAN; for pest or weed control at 4000 g/ha: 4 kg ai/ha; for pest or weed control at 4040 g/ha: 4.04 kg ai/ha
Protocol: as §1

[4] = system: IPOHE: ivyleaf morningglory (Ipomoea hederecea); assay: Pre-emergent Test I herbicidal activity; conditions: pre-emergence, 336 h, read-out: Visual Growth Reduction (%) 14 Days After Application, IPOHE; for pest or weed control at 4000 g/ha: 4 kg ai/ha; for pest or weed control at 4040 g/ha: 4.04 kg ai/ha
Protocol: as §1

[5] = system: SETFA: giant foxtail (Setaria faberi); assay: Pre-emergent Test I herbicidal activity; conditions: pre-emergence, 336 h, read-out: Visual Growth Reduction (%) 14 Days After Application, SETFA; for pest or weed control at 4000 g/ha: 4 kg ai/ha; for pest or weed control at 4040 g/ha: 4.04 kg ai/ha
Protocol: as §1

[6] = system: ALOMY: black-grass (Alopecurus myosuroides); assay: Post-emergent Test III, herbicidal activity in wheat and barley; conditions: for pest or weed control at 35 g/ha: 35 g ai/ha; for pest or weed control at 70 g/ha: 70 g ai/ha; for GR50 ALOMY / GR80 ALOMY: probit analysis, 21 days after application; for GR50 ALOMY: dose for growth reduction of 50 percent; for GR80 ALOMY: dose for growth reduction of 80 percent
Outline: (§2)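 Plants at the second to third true-leaf stage, grown in a greenhouse at about 18/17 °C with a 14 h photoperiod, were sprayed post-emergence at 187 L/ha with the high rate and ½× to 1/16× serial dilutions in an acetone/DMSO/crop-oil/surfactant carrier. Injury was rated visually at 21 d on a 0–100% scale, and GR20–GR90 were derived by probit analysis.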

LAMSS = assay: as above; conditions: for pest or weed control at 35 g/ha / pest or weed control at 70 g/ha / pest or weed control at 140 g/ha: post-emergence, 504 h, read-out: Visual Growth Reduction (%) 21 Days After Application LAMSS; for pest or weed control at 35 g/ha: 35 g ai/ha; for pest or weed control at 70 g/ha: 70 g ai/ha; for GR50 LAMSS / GR80 LAMSS: probit analysis; for pest or weed control at 140 g/ha: 140 g ai/ha
Outline: as §2

[7] = system: VERPE: bird's-eye speedwell (veronica persica); assay: as above; conditions: for GR50 VERPE: dose for 50 percent growth reduction; for GR50 VERPE / GR80 VERPE: probit analysis; for GR80 VERPE: dose for 80 percent growth reduction; for pest or weed control at 35 g/ha: 35 g ai/ha; for pest or weed control at 70 g/ha: 70 g ai/ha
Outline: as §2

[8] = Alopecurus myosuroides, post-emergence, 504 h, read-out: Visual Growth Reduction (%) 21 Days After Application ALOMY
[9] = dose for growth reduction of 50 percent, 21 days after application
[10] = dose for growth reduction of 80 percent, 21 days after application
[11] = Table 8, dose for 50 percent growth reduction, 21 d
[12] = Table 8, dose for 80 percent growth reduction, 21 d
[13] = Veronica persica, post-emergence, 504 h, Table 8, post-emergent, 21 d, read-out: Visual Growth Reduction (%) 21 Days After Application VERPE
[14] = Veronica persica, post-emergence, 504 h, 21 days after application, read-out: Visual Gorowth Reduction (%) 21 days After Application VERPE

Row | SMILES | GR50 LAMSS (LAMSS; [11]) | GR80 LAMSS (LAMSS; [12]) | pest or weed control at 35 g/ha (LAMSS; Table 8, post-emergent, 21 d) | pest or weed control at 70 g/ha (LAMSS; Table 8, post-emergent, 21 d) | GR50 VERPE ([7]; Table 8, 21 d) | GR80 VERPE ([7]; Table 8, 21 d) | pest or weed control at 35 g/ha [7, 13] | pest or weed control at 70 g/ha [7, 13] | other results
1 | COC(=O)c1nc(-c2ccc(Br)c(F)c2F)c(F)c(N)c1Cl [Compound 109, methyl 4-amino-6-(4-bromo-2,3-difluorophenyl)-3-chloro-5-fluoropicolinate] | – | – | – | – | – | – | – | – | pest or weed control at 4000 g/ha ([1]; 4 kg ai/ha): 85 to 94%; pest or weed control at 4000 g/ha [2]: 95 to 100%; pest or weed control at 4000 g/ha [3]: 75 to 84%; pest or weed control at 4000 g/ha [4]: 95 to 100%; pest or weed control at 4000 g/ha [5]: 95 to 100%; pest or weed control at 35 g/ha [6, 8]: 60 to 74%; pest or weed control at 70 g/ha [6, 8]: 75 to 84%; GR50 ALOMY [6]: 22 g ai/ha; GR80 ALOMY [6]: 88 g ai/ha; pest or weed control at 35 g/ha (LAMSS): 95 to 100%; pest or weed control at 70 g/ha (LAMSS): 95 to 100%; GR50 LAMSS (LAMSS; [9]): 1 g ai/ha; GR80 LAMSS (LAMSS; [10]): 1 g ai/ha
2 | COc1c(N)nc(-c2ccc(I)c(F)c2)nc1C(=O)O [Compound 37, 6-Amino-2-(3-fluoro-4-iodophenyl)-5-methoxypyrimidine-4-carboxylic acid] | 1 g ai/ha | 11 g ai/ha | 85 to 94% | 95 to 100% | 15 g ai/ha | 66 g ai/ha | 60 to 74% | 75 to 84% | –
3 | COC(=O)c1nc(-c2ccc(Br)c(F)c2)nc(N)c1OC [Compound 171, Methyl 6-amino-2-(4-bromo-3-fluorophenyl)-5-methoxypyrimidine-4-carboxylate] | 2 g ai/ha | 11 g ai/ha | 85 to 94% | 95 to 100% | 4 g ai/ha | 27 g ai/ha | 85 to 94% | 85 to 94% | –
4 | Nc1cc(-c2ccc(I)cc2F)nc(C(=O)O)c1Cl [Compound 124] | 1 g ai/ha | 1 g ai/ha | 95 to 100% | 95 to 100% | 20 g ai/ha | 39 g ai/ha | 75 to 84% | 85 to 94% | –
5 | C=Cc1c(C(=O)O)nc(-c2ccc(Cl)c(F)c2)c(F)c1N [Compound 214] | – | – | – | – | – | – | – | – | pest or weed control at 4040 g/ha ([1]; 4.04 kg ai/ha): 85 to 94%; pest or weed control at 4040 g/ha [2]: 95 to 100%; pest or weed control at 4040 g/ha [3]: 95 to 100%; pest or weed control at 4040 g/ha [4]: 95 to 100%; pest or weed control at 4040 g/ha [5]: 95 to 100%; pest or weed control at 35 g/ha [6, 8]: 30 to 44%; pest or weed control at 70 g/ha [6, 8]: 45 to 59%; pest or weed control at 140 g/ha ([6]; Alopecurus myosuroides, post-emergence, 504 h, 140 g ai/ha, read-out: Visual Growth Reduction (%) 21 Days After Application ALOMY): 30 to 44%; GR50 ALOMY [6]: 95 g ai/ha; GR80 ALOMY [6]: >140 g ai/ha; pest or weed control at 35 g/ha (LAMSS): 75 to 84%; pest or weed control at 70 g/ha (LAMSS): 75 to 84%; pest or weed control at 140 g/ha (LAMSS): 85 to 94%; GR50 LAMSS (LAMSS; [9]): 12 g ai/ha; GR80 LAMSS (LAMSS; [10]): 33 g ai/ha
6 | COC(=O)c1nc(-c2ccc(I)c(F)c2)c(C)c(N)c1Cl [Compound 79, Methyl 4-amino-3-chloro-6-(3-fluoro-4-iodophenyl)-5-methylpicolinate] | 27 g ai/ha | 72 g ai/ha | 60 to 74% | 60 to 74% | 2 g ai/ha | 37 g ai/ha | 75 to 84% | 85 to 94% | –
7 | COC(=O)c1nc(-c2ccccc2F)c(F)c(N)c1Cl [Compound 206] | – | – | – | – | – | – | – | – | pest or weed control at 4040 g/ha [2]: 0 to 29%; pest or weed control at 4040 g/ha [3]: 95 to 100%; pest or weed control at 4040 g/ha [4]: 95 to 100%; pest or weed control at 4040 g/ha [5]: 75 to 84%
8 | Nc1c(Cl)c(C(=O)O)nc(-c2ccc(I)c(F)c2)c1Cl [Compound 145, 4-Amino-3,5-dichloro-6-(3-fluoro-4-iodophenyl)picolinic acid] | 4 g ai/ha | 13 g ai/ha | 95 to 100% | 95 to 100% | 1 g ai/ha | 10 g ai/ha | 85 to 94% | 85 to 94% | pest or weed control at 140 g/ha (LAMSS; Table 8, post-emergent, 21 d): 95 to 100%; pest or weed control at 140 g/ha ([7]; Veronica persica, post-emergence, 504 h, Table 8, 140 g ai/ha, post-emergent, 21 d, read-out: Visual Growth Reduction (%) 21 Days After Application VERPE): 95 to 100%
9 | C=Cc1c(C(=O)O)nc(-c2ccc(C(F)(F)F)c(F)c2)c(F)c1N [Compound 86] | – | – | – | – | – | – | – | – | pest or weed control at 35 g/ha [7, 14]: 85 to 94%; pest or weed control at 70 g/ha [7, 14]: 85 to 94%; GR50 VERPE ([7]; 21 days after application): 15 g ai/ha; GR80 VERPE ([7]; 21 days after application): 34 g ai/ha
10 | Nc1cc(-c2cc(F)c(Br)cc2F)nc(C(=O)O)c1Cl [Compound 3] | 1 g ai/ha | 1 g ai/ha | 95 to 100% | 95 to 100% | 34 g ai/ha | 126 g ai/ha | 45 to 59% | 60 to 74% | –
11 | Nc1c(Cl)c(C(=O)O)nc(-c2ccc(Br)c(F)c2)c1Cl [Compound 43, 4-Amino-6-(4-bromo-3-fluorophenyl)-3,5-dichloropicolinic acid] | 1 g ai/ha | 10 g ai/ha | 85 to 94% | 85 to 94% | 33 g ai/ha | >140 g ai/ha | 30 to 44% | 75 to 84% | –
12 | Nc1c(F)c(-c2cc(F)c(I)cc2F)nc(C(=O)O)c1Cl [Compound 69] | – | – | – | – | – | – | – | – | pest or weed control at 35 g/ha [7, 14]: 85 to 94%; pest or weed control at 70 g/ha [7, 14]: 95 to 100%; GR50 VERPE ([7]; 21 days after application): 1 g ai/ha; GR80 VERPE ([7]; 21 days after application): 4 g ai/ha
13 | COC(=O)c1nc(-c2cccc(F)c2F)c(F)c(N)c1Cl [Compound 199] | – | – | – | – | – | – | – | – | pest or weed control at 4000 g/ha [2]: 0 to 29%; pest or weed control at 4000 g/ha [3]: 60 to 74%; pest or weed control at 4000 g/ha [4]: 75 to 84%; pest or weed control at 4000 g/ha [5]: 45 to 59%
14 | COC(=O)c1nc(-c2ccc(I)c(F)c2)nc(N)c1OC [Compound 27, Methyl 6-amino-2-(3-fluoro-4-iodophenyl)-5-methoxypyrimidine-4-carboxylate] | 1 g ai/ha | 14 g ai/ha | 85 to 94% | 85 to 94% | 5 g ai/ha | 42 g ai/ha | 75 to 84% | 85 to 94% | –
